In paper PMC10279920, “Single-molecule visualization of Pif1 helicase translocation on single-stranded DNA” (The Journal of Biological Chemistry, 2023):

Target: T1, Pif1 (unlabeled, WT Pif1) (Saccharomyces cerevisiae, UniProt P07271)
T1 construct: nuclear isoform residues 40-859, pRSF-Duet-1, E. coli Rosetta2(DE3), Ni-NTA purified (tag not described), no GFP
T1 sequence (P07271 40-859): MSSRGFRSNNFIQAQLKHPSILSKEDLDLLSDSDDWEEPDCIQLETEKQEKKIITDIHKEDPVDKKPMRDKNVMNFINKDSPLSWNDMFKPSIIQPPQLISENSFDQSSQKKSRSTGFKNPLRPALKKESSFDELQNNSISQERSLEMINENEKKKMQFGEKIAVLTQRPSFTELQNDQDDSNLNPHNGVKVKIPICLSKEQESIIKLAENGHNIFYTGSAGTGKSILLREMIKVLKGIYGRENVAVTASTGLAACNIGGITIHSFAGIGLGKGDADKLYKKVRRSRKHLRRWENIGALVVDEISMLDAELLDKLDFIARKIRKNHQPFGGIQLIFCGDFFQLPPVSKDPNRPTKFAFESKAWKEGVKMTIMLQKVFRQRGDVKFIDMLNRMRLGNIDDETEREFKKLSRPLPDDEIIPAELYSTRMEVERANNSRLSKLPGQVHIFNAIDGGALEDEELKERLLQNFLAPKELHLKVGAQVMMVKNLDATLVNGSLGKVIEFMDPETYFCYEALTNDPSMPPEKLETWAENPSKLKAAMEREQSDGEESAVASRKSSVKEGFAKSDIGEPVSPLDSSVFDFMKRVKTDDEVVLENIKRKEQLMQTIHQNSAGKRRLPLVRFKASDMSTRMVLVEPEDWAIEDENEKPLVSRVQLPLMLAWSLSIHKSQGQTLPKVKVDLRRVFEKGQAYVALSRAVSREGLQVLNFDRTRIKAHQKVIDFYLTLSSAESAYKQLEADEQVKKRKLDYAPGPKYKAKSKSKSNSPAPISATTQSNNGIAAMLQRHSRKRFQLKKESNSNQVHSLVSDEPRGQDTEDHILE
Test: ATP hydrolysis, [γ-32P]-ATP TLC, Michaelis-Menten fit
Type: biochemical
Conditions: M13 ssDNA 1.5 μM nt, 10 nM Pif1, 5 mM MgCl2, 60 mM KCl, pH 7.5, 30 °C, no RPA; labelled compound as tracer
Method: ATP hydrolysis, [γ-32P]-ATP TLC, Michaelis-Menten fit on Pif1 (unlabeled, WT Pif1) | Values for Vmax, Km, and kcat were determined and compared to WT Pif1

Molecule `Nc1ncnc2c1ncn2[C@@H]1O[C@H](COP(=O)(O)OP(=O)(O)OP(=O)(O)O)[C@@H](O)[C@H]1O` [ATP] has a Km of 490 ± 370 µM.
